Consider 22 compounds from patent US20230286960A1, “ALLOSTERIC CHROMENONE INHIBITORS OF PHOSPHOINOSITIDE 3-KINASE (PI3K) FOR THE TREATMENT OF DISEASE” (Petra Pharma Corporation, priority 2020, published 2023).

Test [1] deals with human full length PIK3CA H1047R mutant (p110α/p85α) (Homo sapiens (Human), UniProt P42336, H1047R). In words: PI3K-alpha kinase (PIK3CA) activity, H1047R mutant, Transcreener ADP2 FI assay. The note with it: PI3K-α (PIK3CA) biochemical. As for the experimental part: (§1) PI3K-Alpha Kinase (PIK3CA) Activity, Wild-Type and H1047R Mutant and Determining IC50 Values for Inhibitors
(§2) Recombinant, catalytically active human full length PIK3KA Wild-type and H1047R mutant were purchased as 1:1 complex of N-terminal 6× his tagged p110 ? (catalytic) and untagged p85 ? (regulatory subunit) from EMD Millipore Sigma (cat. no. 14-602M and 14-792M, respectively). The enzyme stocks were diluted to 5× stocks in buffer (20 mM HEPES pH 7.4, 100 mM NaCl, 0.5 mM EGTA, 0.01% triton-x-100) just before use. PIP2diC8 (Avanti Polar Lipids Inc., cat. no. 850185) or phosphoinositol-4,5-bisphosphate with phosphoserine (PIP2:PS) membrane (Thermo Fisher Scientific, cat. no. PV5100) was used as lipid substrates. PIP2diC8 lyophilized powder and PIP2:PS (1:19) membrane stock (1 mM in PIP2) were separately dissolved in milliQ water to a concentration of 250 uM and stored in −20° C. 10 mM stocks of compounds were serially diluted (3×) in neat DMSO and stored in a dessicator at room temperature. 5× compound stocks in 25% DMSO were prepared fresh from neat DMSO stocks.
(§3) Wild-type (WT) and H1047R mutant protein, along with buffer components (except ATP), were incubated with or without compound at 27° C. for 1 h. After incubation, the reaction was initiated by the addition of 5 uL of 125 uM ATP. A typical assay mixture (25 uL) comprised 40 mM HEPES buffer, pH 7.4, 25 mM MgCl2, 0.01% v/v triton-X-100, 5% v/v DMSO, 20 mM NaCl, 1-5 nM wt or H1047R, 25 uM ATP, and 50 uM PIP2diC8 or PIP2 in membrane. The reaction was allowed to proceed until about […] (2.5 uM ADP) after which time, 10 uL of reaction mixture was quenched with 25 uL of transcreener reagent (Transcreener ADP2 FI assay kit, BellBrook labs, Cat. No. 3013). The contents were incubated at rt for 1 h and fluorescence was measured using a plate reader (Paradigm, Molecular Devices). The same assay was also run at pH 6.0 or 6.4 using MOPS buffer (Fisher BioReagents, CAS 1132-61-2). A calibration curve was generated under identical buffer conditions with varying ADP amounts. Using that, the observed fluorescence was converted to uM ADP. A plot between [ADP] and log[I] yielded the dose-response curves that enabled the calculation of IC50s.

Test [2] has as its target human full length PIK3CA wild-type (p110α/p85α) (Homo sapiens (Human), UniProt P42336). Nature of the test: PI3K-alpha kinase (PIK3CA) activity, wild-type, Transcreener ADP2 FI assay. The note with it: PI3K-α (PIK3CA) biochemical. How it is done: as §1, §2, §3

human full length PIK3CA wild-type (p110α/p85α), sequence (P42336 whole entry): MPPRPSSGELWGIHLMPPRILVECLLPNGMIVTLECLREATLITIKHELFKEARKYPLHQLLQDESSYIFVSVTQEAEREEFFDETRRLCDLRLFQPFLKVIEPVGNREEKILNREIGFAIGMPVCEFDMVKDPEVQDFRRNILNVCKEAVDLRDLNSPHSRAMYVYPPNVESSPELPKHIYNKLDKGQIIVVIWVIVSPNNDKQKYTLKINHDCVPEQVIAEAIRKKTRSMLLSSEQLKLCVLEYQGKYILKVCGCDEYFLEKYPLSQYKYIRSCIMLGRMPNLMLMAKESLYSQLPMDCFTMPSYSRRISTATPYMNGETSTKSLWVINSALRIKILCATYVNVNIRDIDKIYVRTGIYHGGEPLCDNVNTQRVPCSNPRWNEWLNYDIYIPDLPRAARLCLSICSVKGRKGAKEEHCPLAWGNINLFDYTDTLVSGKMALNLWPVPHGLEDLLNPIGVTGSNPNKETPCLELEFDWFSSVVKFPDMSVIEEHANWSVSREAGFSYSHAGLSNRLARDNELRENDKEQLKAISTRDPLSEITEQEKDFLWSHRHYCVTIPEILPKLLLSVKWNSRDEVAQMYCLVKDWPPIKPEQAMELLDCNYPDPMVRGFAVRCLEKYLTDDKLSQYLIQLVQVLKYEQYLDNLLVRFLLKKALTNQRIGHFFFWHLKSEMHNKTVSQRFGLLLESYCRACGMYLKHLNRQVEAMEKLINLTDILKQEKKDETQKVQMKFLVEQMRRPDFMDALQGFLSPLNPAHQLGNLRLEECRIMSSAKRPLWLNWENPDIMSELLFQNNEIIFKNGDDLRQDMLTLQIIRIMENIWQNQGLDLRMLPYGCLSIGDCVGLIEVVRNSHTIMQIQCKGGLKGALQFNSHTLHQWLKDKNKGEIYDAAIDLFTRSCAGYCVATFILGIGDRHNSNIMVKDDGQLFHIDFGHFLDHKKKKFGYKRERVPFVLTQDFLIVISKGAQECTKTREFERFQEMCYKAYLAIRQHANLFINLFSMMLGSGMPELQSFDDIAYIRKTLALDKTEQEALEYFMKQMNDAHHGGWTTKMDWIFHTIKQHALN
human full length PIK3CA wild-type (p110α/p85α), sequence (P27986 whole entry partner): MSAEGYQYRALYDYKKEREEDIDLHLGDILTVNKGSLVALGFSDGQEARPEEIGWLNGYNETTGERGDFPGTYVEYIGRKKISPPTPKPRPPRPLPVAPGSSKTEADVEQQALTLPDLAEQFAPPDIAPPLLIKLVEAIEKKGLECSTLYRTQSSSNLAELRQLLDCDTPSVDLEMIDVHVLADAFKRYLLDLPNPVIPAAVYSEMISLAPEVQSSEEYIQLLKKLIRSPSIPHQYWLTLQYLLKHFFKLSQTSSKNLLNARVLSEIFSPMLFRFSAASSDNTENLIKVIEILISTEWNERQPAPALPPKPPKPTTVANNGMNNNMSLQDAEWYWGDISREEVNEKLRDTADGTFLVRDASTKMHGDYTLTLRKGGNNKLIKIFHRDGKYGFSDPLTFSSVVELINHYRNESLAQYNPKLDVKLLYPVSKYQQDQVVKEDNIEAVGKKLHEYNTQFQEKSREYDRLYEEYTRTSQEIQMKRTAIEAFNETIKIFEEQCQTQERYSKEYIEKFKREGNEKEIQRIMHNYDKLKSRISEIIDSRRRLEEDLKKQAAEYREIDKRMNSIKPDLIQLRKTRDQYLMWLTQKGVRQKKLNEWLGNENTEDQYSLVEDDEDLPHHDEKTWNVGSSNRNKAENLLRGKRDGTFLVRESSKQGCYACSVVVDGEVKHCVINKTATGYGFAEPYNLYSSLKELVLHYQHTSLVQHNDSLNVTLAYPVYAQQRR
human full length PIK3CA H1047R mutant (p110α/p85α), sequence (P42336 whole entry H1047R): as the sequence (P42336 whole entry) above, with H1047R counted along it
human full length PIK3CA H1047R mutant (p110α/p85α), sequence (P27986 whole entry partner): as the sequence (P27986 whole entry partner) above

Take `Cc1cc([C@@H](C)Nc2ccc(Cl)nc2C(=O)O)c2oc(N3CCC(C)(C)CC3)cc(=O)c2c1` [Example 256, 6-Chloro-3-[[(1R)-1-[2-(4,4-dimethyl-1-piperidyl)-6-methyl-4-oxo-chromen-8-yl]lethyl]amino]pyridine-2-carboxylic acid]: the IC50 in test [1] and in test [2] was below 500 nM in each case.

For the compound `Cc1cc(C(C)Nc2cc3c(cc2C(=O)O)OCO3)c2oc(N3CCC(C)(C)CC3)cc(=O)c2c1` (centres unmarked) [Example 33, 6-[1-[2-(4,4-Dimethyl-1-piperidyl)-6-methyl-4-oxo-chromen-8-yl]ethylamino]-1,3-benzodioxole-5-carboxylic acid], the IC50 in test [1] and in test [2] was above 10000 nM in each case.

Take `Cc1cc([C@@H](C)Nc2ccccc2C(=O)O)c2oc(N3CC(C)(c4ccccc4)C3)c(C)c(=O)c2c1` [Example 274, 2-[[(1R)-1-[3,6-Dimethyl-2-(3-methyl-3-phenyl-azetidin-1-yl)-4-oxo-chromen-8-yl]ethyl]amino]benzoic acid]: the IC50 in test [1] and in test [2] was below 500 nM each time.

Consider `Cc1cc(C(C)N(C)c2ccccc2C(=O)O)c2oc(N3CCC(C)(C)CC3)cc(=O)c2c1` (centres unmarked) [Example 5, 2-[1-[2-(4,4-Dimethyl-1-piperidyl)-6-methyl-4-oxo-chromen-8-yl]ethyl-methyl-amino]benzoic acid], for which the IC50 in test [1] and in test [2] was above 10000 nM in each case.

Take `CC(Nc1ccc(Cl)nc1C(=O)O)c1cc(F)cc2c(=O)cc(N3Cc4ccccc4C3)oc12` (centres unmarked) [Example 400, 6-Chloro-3-[1-(6-fluoro-2-isoindolin-2-yl-4-oxo-chromen-8-yl)ethylamino]pyridine-2-carboxylic acid 2,2,2-trifluoroacetic acid]: the IC50 in test [1] and in test [2] was below 500 nM each time.

Take `Cc1cc([C@@H](C)Nc2ccc(Cl)nc2C(=O)O)c2oc(N3Cc4ccccc4C3)cc(=O)c2c1` [Example 300, 6-Chloro-3-[[(1R)-1-(2-isoindolin-2-yl-6-methyl-4-oxo-chromen-8-yl)ethyl]amino]pyridine-2-carboxylic acid]: the IC50 in test [1] and in test [2] was below 500 nM throughout.

For `Cc1cc([C@@H](C)Nc2ccccc2C(=O)O)c2oc(N3CC[C@H](c4ccccc4)C3)c(C)c(=O)c2c1` [Example 286, 2-[[(1R)-1-[3,6-dimethyl-4-oxo-2-[(3R)-3-phenylpyrrolidin-1-yl]chromen-8-yl]ethyl]amino]benzoic acid], the IC50 in test [1] and in test [2] was below 500 nM throughout.

On to `Cc1cc([C@@H](C)Nc2ccc(Cl)nc2C(=O)O)c2oc(N3Cc4ccc(F)cc4C3)c(C)c(=O)c2c1` [Example 308, 6-Chloro-3-[[(1R)-1-[2-(5-fluoroisoindolin-2-yl)-3,6-dimethyl-4-oxo-chromen-8-yl]ethyl]amino]pyridine-2-carboxylic acid], for which the IC50 in test [1] and in test [2] was below 500 nM throughout.

For the compound `Cc1cc(C(C)Nc2ccc(C#N)cc2C(=O)O)c2oc(N3CCC(C)(C)CC3)cc(=O)c2c1` (centres unmarked) [Example 6, 5-Cyano-2-[1-[2-(4,4-dimethyl-1-piperidyl)-6-methyl-4-oxo-chromen-8-yl]ethylamino]benzoic acid], the IC50 was below 500 nM in test [1] and above 10000 nM in test [2].

In the case of `Cc1cc([C@@H](C)Nc2ccc(Cl)nc2C(=O)O)c2oc(N3CCC4(CC3)CC4)c(C)c(=O)c2c1` [Example 306, 3-[[(1R)-1-[2-(6-Azaspiro[2.5]octan-6-yl)-3,6-dimethyl-4-oxo-chromen-8-yl]ethyl]amino]-6-chloro-pyridine-2-carboxylic acid], the IC50 in test [1] and in test [2] was below 500 nM in each case.

With `Cc1cc(C(C)Nc2c(Cl)cccc2C(=O)O)c2oc(N3CCC(C)(C)CC3)cc(=O)c2c1` (centres unmarked) [Example 11, 3-Chloro-2-[1-[2-(4,4-dimethyl-1-piperidyl)-6-methyl-4-oxo-chromen-8-yl]ethylamino]benzoic acid], the IC50 in test [1] and in test [2] was above 10000 nM throughout.

With `Cc1cc(C(C)Nc2ccccc2C(=O)O)c2oc(N3CC(Cl)C3)cc(=O)c2c1` (centres unmarked) [Example 63, 2-[1-[2-(3-Chloroazetidin-1-yl)-6-methyl-4-oxo-chromen-8-yl]ethylamino]benzoic acid], the IC50 in test [1] was below 500 nM; in test [2], above 10000 nM.

`Cc1cc([C@@H](C)Nc2ccc(Cl)nc2C(=O)O)c2oc(N3Cc4ccc5c(c4C3)OCO5)cc(=O)c2c1` [Example 301, 6-Chloro-3-[[(1R)-1-[2-(6,8-dihydro-[1,3]dioxolo[4,5-e]isoindol-7-yl)-6-methyl-4-oxo-chromen-8-yl]ethyl]amino]pyridine-2-carboxylic acid]: the concentration for half-maximal inhibition (IC50) in test [1] and in test [2] was below 500 nM in each case.

For the compound `Cc1cc(C(C)Nc2ccccc2C(=O)O)c2oc(N3CCC(C)CC3)cc(=O)c2c1` (centres unmarked) [Example 370, 2-[1-[6-Methyl-2-(4-methyl-1-piperidyl)-4-oxo-chromen-8-yl]ethylamino]benzoic acid], the IC50 in test [1] was below 500 nM; in test [2], above 10000 nM.

In the case of `Cc1cc(C(C)Nc2ccc(B(O)O)cc2C(=O)O)c2oc(N3CCC(C)(C)CC3)cc(=O)c2c1` (centres unmarked) [Example 357, 5-Borono-2-[1-[2-(4,4-dimethyl-1-piperidyl)-6-methyl-4-oxo-chromen-8-yl]ethylamino]benzoic acid], the IC50 in test [1] and in test [2] was above 10000 nM each time.

As for `Cc1cc(C(C)Nc2ccc(Cl)nc2C(=O)O)c2oc(N3CCCCC3)c(C)c(=O)c2c1` (centres unmarked) [Example 305, 6-Chloro-3-[1-[3,6-dimethyl-4-oxo-2-(1-piperidyl)chromen-8-yl]ethylamino]pyridine-2-carboxylic acid], the IC50 in test [1] and in test [2] was below 500 nM in each case.

On to `Cc1cc(C(C)Nc2ccccc2C(=O)O)c2oc(N3CCCC4(CNC(=O)C4)C3)cc(=O)c2c1` (centres unmarked) [Example 61, 2-[1-[6-Methyl-4-oxo-2-(3-oxo-2,7-diazaspiro[4.5]decan-7-yl)chromen-8-yl]ethylamino]benzoic acid], for which the IC50 in test [2] is above 10000 nM.

As to `COc1cc(C(=O)O)c(NC(C)c2cc(C)cc3c(=O)cc(N4CCC(C)(C)CC4)oc23)cc1F` (centres unmarked) [Example 1, 2-[1-[2-(4,4-Dimethyl-1-piperidyl)-6-methyl-4-oxo-chromen-8-yl]ethylamino]-4-fluoro-5-methoxy-benzoic acid], the IC50 in test [2] is above 10000 nM.

As for `COC1CCN(c2cc(=O)c3cc(C)cc(C(C)Nc4ccccc4C(=O)O)c3o2)CC1` (centres unmarked) [Example 373, 2-[1-[2-(4-Methoxy-1-piperidyl)-6-methyl-4-oxo-chromen-8-yl]ethylamino]benzoic acid], the IC50 in test [2] was above 10000 nM.

In test [2], `COc1ccc(NC(C)c2cc(C)cc3c(=O)cc(N4Cc5ccccc5C4)oc23)c(C(=O)O)n1` (centres unmarked) [Example 237, 3-[1-(2-Isoindolin-2-yl-6-methyl-4-oxo-chromen-8-yl)ethylamino]-6-methoxy-pyridine-2-carboxylic acid] showed an IC50 above 10000 nM.

`CCNc1cc(=O)c2cc(C)cc(C(C)Nc3ccccc3C(=O)O)c2o1` (centres unmarked) [Example 126, 2-[1-[2-(Ethylamino)-6-methyl-4-oxo-chromen-8-yl]ethylamino]benzoic acid] had an IC50 in test [2] above 10000 nM.

`Cc1cc(C(C)Nc2cccc(F)c2C(=O)O)c2oc(N3Cc4ccc(F)cc4C3)cc(=O)c2c1` (centres unmarked) [Example 238, 2-Fluoro-6-[1-[2-(5-fluoroisoindolin-2-yl)-6-methyl-4-oxo-chromen-8-yl]ethylamino]benzoic acid]: the half-maximal inhibitory concentration (IC50) in test [2] is above 10000 nM.
